Measurements as given in publication PMC9959130, “Effects of Side Chain and Peptide Bond Modifications on the Targeting Properties of Stabilized Minigastrin Analogs” (Pharmaceuticals, 2023).
Like-named read-outs stand apart in the source and are kept apart here. Where a SMILES comes first, the peptide text is derived from it. [ ]: non-standard residue; d: D form. The star is where a group is joined. DOTA = O=C(O)CN1CCN(CC(=O)O)CCN(CC(=O)*)CCN(CC(=O)O)CC1; NMeNle = CCCC[C@H](NC)C(=O)O

Experiments:
[1] = Metabolic studies in BALB/c mice (intact radiopeptide by radio-HPLC); format: in vivo; settings: i.v., 2 nmol, 10 min p.i., two animals per peptide; for Intact radiopeptide in kidney: kidney homogenate; for Intact radiopeptide in liver: liver homogenate
Protocol: All animal experiments were approved by the Austrian Ministry of Science (BMWF-66.011/0075- WF/V/3b/2016) and performed in accordance with the Austrian Animal Protection Act. Metabolic studies characterizing the stability of selected radioligands against enzymatic degradation were carried out in 7 to 8 week old female BALB/c mice (Charles River, Sulzfeld, Germany). The mice (two animals for each peptide) were intravenously injected into a lateral tail vein with 5–10 MBq of the ^111In-labeled peptide derivatives, corresponding to 2 nmol total peptide. At the time point of 10 min p.i. the animals were euthanatized by cervical dislocation. A sample of urine and blood was immediately collected. Liver and kidneys were dissected, mixed with 20 mM HEPES buffer pH 7.3 (1:1, w/v) and homogenized using an Ultra-Turrax T8 homogenizer (IKA-Werke, Staufen, Germany) for 1 min. All samples taken were analyzed by analytical HPLC using the low-sensitivity loop for urine and the high-sensitivity loop for blood, liver and kidney. Before injection into the HPLC system, all samples except urine were treated with ACN and diluted with water as described for stability studies in human serum. The percentage of intact radiopeptide in the analyzed samples was calculated by integration of the different peaks found in the radiochromatogram using Chromeleon Dionex Software (Version 7.2.9.11323).

[2] = Binding to serum proteins (incubation in human serum, Sephadex G-50 size exclusion chromatography); format: in vitro ADME; settings: 37 °C
Protocol: Protein binding was determined by incubation of the radiolabeled peptides in human serum at 37 °C (500 pmol/mL, n = 2). For the time points of 1, 4, and 24 h after incubation, samples of 25 µL were subjected to Sephadex G-50 size exclusion chromatography (GE Healthcare Illustra, Little Chalfont, UK). The column and the eluate were measured using the γ-counter and the percentage of protein binding was calculated.

[3] = Biodistribution in BALB/c nude mice bearing A431-CCK2R/A431-mock xenografts; format: in vivo; settings: female, athymic BALB/c nude, mouse, iv, 20 pmol, total radioactivity, xenografted BALB/c nude mice, i.v., ~20 pmol, 4 h p.i. (indium-111 or lutetium-177), mean ± SD n = 4
Protocol: The overall biodistribution and tumor targeting properties of selected radiolabeled peptides were evaluated in female athymic BALB/c nude mice (Charles River, Sulzfeld, Germany, age of 7 to 9 weeks). After tumor induction with 2 × 10^6 A431-CCK2R or A431-mock cells (subcutaneously injected in 200 μL DMEM into the right and left flank) and a waiting period of 10–14 days (sufficient to achieve tumors of ∼0.25 g), mice were randomly divided into groups of four and treated with a bolus injection of 150 µL of the injectable solution containing the radiolabeled peptide via a lateral tail vein to achieve an injected radioactivity of 150–200 kBq and a total injected peptide amount of ~20 pmol (n = 4 for each radiopeptide). For DOTA-[(N-Me)1Nal^8]MGS5, additional biodistribution studies were performed with gallium-68 (~0.5 MBq, 20 pmol) and lutetium-177 (~0.5 MBq, 20 pmol). The animals were euthanatized by cervical dislocation at 1 h (gallium-68) or 4 h p.i. (indium-111/ lutetium-177). The tumors and other tissues (blood, lung, heart, muscle, spleen, intestine, liver, kidney, stomach, and pancreas) were dissected, weighed, and the radioactivity measured in the γ-counter. The rest of the body and a standard of the solution injected was also measured together with the collected samples. The percentage of injected activity per gram of tissue (% IA/g) and the tumor-to-organ activity ratio of selected tissues were calculated for each mouse and time point studied. Origin software (Microcal Origin 6.1, Northampton, MA, USA) was used for statistical analysis (independent t-test for two populations; significance level p < 0.05).

Row | Intact radiopeptide in kidney [1] [%] | Intact radiopeptide in liver [1] [%] | Intact radiopeptide in blood [1] [%] | Intact radiopeptide in urine [1] [%] | Binding to Serum Proteins (%) ([2]; radiolabeled peptide (111In where no radiometal named), 500 pmol/mL, 24 h after incubation, Sephadex G-50, γ-counter, n = 2) | tissue uptake at 4 h ([3]; A431-CCK2R xenograft, read-out: Uptake in A431-CCK2R xenograft) [%ID/g] | tissue uptake at 4 h ([3]; stomach, read-out: Uptake in stomach) [%ID/g] | fraction unbound at 4 h, 500 pmol/mL ([2]; human, radiolabeled peptide, 4 h after incubation, Sephadex G-50, n = 2) | fraction unbound at 24 h, 500 pmol/mL ([2]; radiolabeled peptide (111In where no radiometal named), 24 h after incubation, Sephadex G-50, γ-counter, n = 2) | Compound
1 | 24.7 ± 0.3 | 83.9 ± 0.1 | 88.4 ± 0.4 | 28.2 ± 1.0 | – | – | – | – | – | CCCC[C@@H](C(=O)N[C@@H](CC(=O)O)C(=O)N[C@@H](Cc1ccc2ccccc2c1)C(N)=O)N(C)C(=O)[C@H](Cc1c[nH]c2ccccc12)NC(=O)CNC(=O)[C@H](Cc1ccc(O)cc1)NC(=O)[C@H](C)NC(=O)[C@@H](CCC(=O)O)NC(=O)CN1CCN(CC(=O)O)CCN(CC(=O)O)CCN(CC(=O)O)CC1 [[^111In]In-DOTA-[2Nal^8]MGS5] [metal not drawn]
2 | 7.4 ± 8.6 | 78.1 ± 3.7 | 71.7 ± 6.2 | 1.3 ± 0.2 | – | – | – | – | – | CCCC[C@@H](C(=O)N[C@@H](CC(=O)O)C(=O)N[C@@H](Cc1cccc2ccccc12)C(=O)NC)N(C)C(=O)[C@H](Cc1c[nH]c2ccccc12)NC(=O)CNC(=O)[C@H](Cc1ccc(O)cc1)NC(=O)[C@H](C)NC(=O)[C@@H](CCC(=O)O)NC(=O)CN1CCN(CC(=O)O)CCN(CC(=O)O)CCN(CC(=O)O)CC1 [[^111In]In-DOTA-MGS5[NHCH3]] [metal not drawn]
3 | – | – | – | – | 20 | – | – | – | – | CCCC[C@@H](C(=O)N[C@@H](CC(=O)O)C(=O)N[C@@H](Cc1ccccc1)C(N)=O)N(C)C(=O)[C@H](Cc1c[nH]c2ccccc12)NC(=O)CNC(=O)[C@H](Cc1ccc(O)cc1)NC(=O)[C@H](C)NC(=O)[C@@H](CCC(=O)O)NC(=O)CN1CCN(CC(=O)O)CCN(CC(=O)O)CCN(CC(=O)O)CC1 [[^111In]In-DOTA-[Phe^8]MGS5] [metal not drawn] ({DOTA}-[dE]AYGW[NMeNle]DF-NH2)
4 | – | – | – | – | – | 35.1 ± 6.32 | 2.37 ± 0.33 | 0.746 | 0.713 | CCCC[C@@H](C(=O)N[C@@H](CC(=O)O)C(=O)N(C)[C@@H](Cc1cccc2ccccc12)C(N)=O)N(C)C(=O)[C@H](Cc1c[nH]c2ccccc12)NC(=O)CNC(=O)[C@H](Cc1ccc(O)cc1)NC(=O)[C@H](C)NC(=O)[C@@H](CCC(=O)O)NC(=O)CN1CCN(CC(=O)O)CCN(CC(=O)O)CCN(CC(=O)O)CC1 [[^177Lu]Lu-DOTA-[(N-Me)1Nal^8]MGS5, metal not drawn]
